From patent US20190125648A1, “COMPOSITION FOR PREVENTING, IMPROVING OR TREATING HAIR LOSS COMPRISING DEOXYCHOLIC ACID AS ACTIVE INGREDIENT” (priority 2016, published 2019) come the findings set out here.

For this test, the system named is B6CBAF1/j hybrid mice. The test is described as follows: Testosterone-induced hair loss in mice: hair loss area and follicle count. It counts as in vivo. To be noted: after two weeks; testosterone 10 mg/ml + each test substance 1 mg/ml; compared to testosterone alone (group T); FIG. 3. As to the method:
B6CBAF1/j hybrid mice (5 weeks old, male, Charles River Japan) were acclimated for one week in a breeding room and then used from the time of 6 weeks after birth.
For use in an injection agent, a solvent was prepared to contain 15% of ethanol, 5% of NMP, and 80% of PBS. Solutions were prepared by mixing the solvent with the following solutes: group T (testosterone 10 mg/ml), group TD (testosterone 10 mg/ml+deoxycholic acid 1 mg/ml), group TR (testosterone 10 mg/ml+resveratrol 1 mg/ml), group TF (testosterone 10 mg/ml+finasteride 1 mg/ml), and group TRF (testosterone 10 mg/ml+resveratrol 1 mg/ml+finasteride 1 mg/ml).
The animals were anesthetized with isoflurane through inhalation and injected subcutaneously at the neck with 100 μl of a testosterone solution (10 mg/ml) every day. From a couple of weeks, they were photographed along with a scale bar to quantify a hair loss area. After six weeks of testing, the mice were sacrificed by means of a CO2 incubator. Test areas of the skin were taken, fixed with formalin, and prepared into paraffin blocks. The blocks were horizontally sectioned and dyed with H&E (Hematoxylin & Eosin) to count follicles per mm^2.

In the case of `Oc1ccc(C=Cc2cc(O)cc(O)c2)cc1` [resveratrol], the “increment in hair loss area” value is listed as “greatly reduced”.
